Results published in patent US10059741B2 (priority 2015, dated 2018).
Where two headings read alike, the source gives them in different places. Bridge positions count the residues as written; N and C are the ends. Square brackets hold non-standard residues; d marks the D form. Peptide text beside a SMILES is read from it. R8 = C=CCCCCCC[C@@](C)(N)C(=O)O; S5 = C=CCCC[C@](C)(N)C(=O)O; Nle = CCCC[C@H](N)C(=O)O; Aib = CC(C)(N)C(=O)O

Columns and labels:
[1] = system: H5N1 A/Hong Kong/213/2003; assay: microbe, parasite or virus in culture; format: cell-based, influenza A virus; conditions: read-out: EC50
[2] = system: H7N9 A/Anhui/1/2013; assay: microbe, parasite or virus in culture; format: cell-based, influenza A virus; conditions: read-out: EC50
[3] = system: influenza virus, various viral strains; assay: organism not typed; format: cell-based; conditions: read-out: EC50
[4] = system: H1N1 A/Solomon Island/03/2006; format: cell-based, influenza A virus; conditions: read-out: EC50
[5] = system: H1N1 California/07/2009; assay: microbe, parasite or virus in culture; format: cell-based, influenza A virus
[6] = system: influenza virus, various viral strains; format: cell-based; conditions: VYR/Neutral Red
[7] = in vitro; conditions: dog
[8] = system: H3N2 Perth/16/2009; assay: microbe, parasite or virus in culture; format: cell-based, influenza A virus
[9] = system: H3N2 Perth/16/2009; assay: microbe, parasite or virus in culture; format: cell-based, influenza A virus; remark: listed apart in the source
[10] = system: H1N1 California/07/2009; assay: microbe, parasite or virus in culture; format: cell-based, influenza A virus; remark: listed apart in the source
[11] = CC50 (μM) H1N1 California/07/2009, Cell cytotoxicity (CC), run with H1N1 California/07/2009
[12] = CC50 (μM) H3N2 Perth/16/2009, Cell cytotoxicity (CC), run with H3N2 Perth/16/2009
[13] = CC50, run with Influenza A H1N1 A/Solomon Is./3/2006-M, Neutral Red
[14] = CC50, run with Influenza A H1N1 A/Solomon Is./3/2006-M, Visual
[15] = CC50, run with Influenza A H1N1 California/07/20/09 (so in the source), later run, Neutral Red
[16] = CC50, run with Influenza A H1N1 California/07/20/09 (so in the source), Visual/Neutral Red
[17] = CC50, run with Influenza A H1N1 California/07/2009, Neutral Red
[18] = CC50, run with Influenza A H3N2 Perth/16/2006 (so in the source), Neutral Red
[19] = CC50, run with Influenza A H3N2 Perth/16/2006 (so in the source), Visual
[20] = CC50, run with Influenza A H3N2 Perth/16/2009, last run, Neutral Red
[21] = CC50, run with Influenza A H3N2 Perth/16/2009, Visual/Neutral Red
[22] = read-out: EC50 (μM) H1N1 California/07/2009
[23] = read-out: EC50 (μM) H3N2 Perth/16/2009

SMILES: CCCC[C@H](NC(C)=O)C(=O)N[C@@H](CC(=O)O)C(=O)N[C@H](C(=O)N[C@@H](CC(N)=O)C(=O)N[C@]1(C)CCCCCCC=CCCC[C@@](C)(C(=O)N[C@@H](C)C(=O)N[C@@H](C)C(=O)N[C@@H](CCC(N)=O)C(N)=O)NC(=O)[C@H](C)NC(=O)[C@H](CC(C)C)NC(=O)[C@H](Cc2ccccc2)NC(=O)[C@H](CC(C)C)NC(=O)[C@H](CC(C)C)NC(=O)[C@H]([C@@H](C)O)NC1=O)C(C)C [SP-18] (Ac-[Nle]DVN[R8]TLLFLA[S5]AAQ-NH2; staple 5-12)
- EC50 [1]: > 50 µM
- EC50 [2]: > 50 µM
- EC50 ([3]; Influenza A H1N1 A/Solomon Is./3/2006-M, Drug Assay Visual): 13 µM
- EC50 [3]: > 50 µM
- EC50 ([4]; Influenza A H1N1 A/Solomon Is./3/2006-M, Drug Assay Neutral Red): 29 µM
- EC50 ([5]; Cytopathic effect/toxicity (Visual), MDCK cells, read-out: EC50 (μM) H1N1 California/07/2009): 1.5 to 10 µM
- EC90 ([6]; Influenza A H1N1 California/07/2009): 6.4 µM
- EC90 ([6]; Influenza A H3N2 Perth/16/2009): > 100 µM
- CC50 ([7]; CC50): > 50 µM
- CC50 [7, 11]: > 100 µM
- CC50 [7, 12]: > 100 µM
- CC50 ([7]; CC50, MDCK cells, run with Influenza A H1N1 California/07/2009, Neutral Red): > 100 µM
- CC50 ([7]; CC50, MDCK cells, run with Influenza A H1N1 California/07/2009, VYR/Neutral Red): > 100 µM
- CC50 ([7]; CC50, MDCK cells, run with Influenza A H1N1 California/07/2009, Visual): > 100 µM
- CC50 ([7]; CC50, MDCK cells, run with Influenza A H3N2 Perth/16/2009, Neutral Red): > 100 µM
- CC50 ([7]; CC50, MDCK cells, run with Influenza A H3N2 Perth/16/2009, VYR/Neutral Red): > 100 µM
- CC50 [7, 13]: > 100 µM
- CC50 [7, 14]: > 100 µM
- CC50 [7, 15]: > 100 µM
- CC50 [7, 16]: > 100 µM
- CC50 [7, 17]: > 100 µM
- CC50 [7, 18]: > 100 µM
- CC50 [7, 19]: > 100 µM
- CC50 [7, 20]: > 100 µM
- CC50 [7, 21]: > 100 µM
- EC50 ([8]; Cytopathic effect/toxicity (Neutral red), MDCK cells, read-out: EC50 (μM) H3N2 Perth/16/2009): 25 to 50 µM
- EC50 ([8]; Influenza A H3N2 Perth/16/2006 (so in the source), Drug Assay Neutral Red, read-out: EC50): 22 µM
- EC50 ([8]; Influenza A H3N2 Perth/16/2009, last run, Drug Assay Neutral Red, read-out: EC50): > 100 µM
- EC90 ([8]; Influenza A H3N2 Perth/16/2009, Drug Assay Visual/Neutral Red): > 100 µM
- EC50 ([8]; Influenza A H3N2 Perth/16/2009, Neutral Red, read-out: EC50): 33 µM
- EC50 ([9]; Cytopathic effect/toxicity (Visual), MDCK cells, read-out: EC50 (μM) H3N2 Perth/16/2009): 25 to 50 µM
- EC50 ([9]; Influenza A H3N2 Perth/16/2006 (so in the source), Drug Assay Visual, read-out: EC50): 14 µM
- EC50 ([10]; Cytopathic effect/toxicity (Neutral red), MDCK cells, read-out: EC50 (μM) H1N1 California/07/2009): 1.5 to 10 µM
- EC50 ([10]; Influenza A H1N1 California/07/20/09 (so in the source), later run, Drug Assay Neutral Red, read-out: EC50): 7 µM
- EC90 ([10]; Influenza A H1N1 California/07/20/09 (so in the source), Drug Assay Visual/Neutral Red): 4 µM
- EC50 ([10]; Influenza A H1N1 California/07/2009, Drug Assay Neutral Red, read-out: EC50): 3.8 µM

SMILES: CCCC[C@H](NC(C)=O)C(=O)N[C@@H](CC(=O)O)C(=O)N[C@H](C(=O)N[C@@H](CC(N)=O)C(=O)N[C@@]1(C)CCCC=CCCC[C@@](C)(C(=O)N[C@@H](CC(C)C)C(=O)N[C@@H](C)C(=O)N[C@H](C(=O)N[C@@H](CCC(N)=O)C(=O)N[C@@H](C)C(=O)N[C@@H](C)C(=O)NC(C)(C)C(=O)N[C@@H](C)C(N)=O)C(C)C)NC(=O)[C@H](CC(C)C)NC(=O)[C@H](CC(C)C)NC(=O)[C@H]([C@@H](C)O)NC1=O)C(C)C [SP-22] (Ac-[Nle]DVN[S5]TLL[S5]LAVQAA[Aib]A-NH2; staple 5-9)
- EC50 [1]: > 50 µM
- EC50 [2]: 13 µM
- EC50 [3]: 12 µM
- EC50 [4]: 29 µM
- EC50 ([5]; read-out: EC50): 1.8 µM
- EC50 [5, 22]: 1.5 to 10 µM
- CC50 ([7]; CC50): > 50 µM
- CC50 [7, 11]: > 100 µM
- CC50 [7, 12]: > 100 µM
- CC50 [7, 13]: > 100 µM
- CC50 [7, 14]: > 100 µM
- CC50 [7, 15]: > 100 µM
- CC50 [7, 16]: > 100 µM
- CC50 [7, 17]: > 100 µM
- CC50 ([7]; CC50, run with Influenza A H1N1 California/07/2009, Visual): > 100 µM
- CC50 [7, 18]: > 100 µM
- CC50 [7, 19]: > 100 µM
- CC50 [7, 20]: > 100 µM
- CC50 [7, 21]: > 100 µM
- EC90 [8]: 59 µM
- EC50 [8, 23]: < 1.5 µM
- EC50 ([9]; read-out: EC50): 0.54 µM
- EC50 [9, 23]: < 1.5 µM
- EC90 [10]: 6.5 µM
- EC50 [10, 22]: 1.5 to 10 µM
